Our source for the IC50 values is article PMC6714992 (Clinical and Applied Thrombosis/Hemostasis, 2019).

The target in the assay is factor Xa (Bos taurus, UniProt P00743). Kind of assay: kinetic amidolytic. The format is biochemical.

One may read the IC50 as the concentration at which inhibition is half-maximal. A lower IC50 goes with greater potency.

Chain of factor Xa (P00743 41-180): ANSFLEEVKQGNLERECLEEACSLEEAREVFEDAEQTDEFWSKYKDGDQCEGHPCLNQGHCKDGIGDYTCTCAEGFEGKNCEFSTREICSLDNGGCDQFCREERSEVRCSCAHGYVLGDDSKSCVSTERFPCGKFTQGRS
Chain of factor Xa (P00743 234-492): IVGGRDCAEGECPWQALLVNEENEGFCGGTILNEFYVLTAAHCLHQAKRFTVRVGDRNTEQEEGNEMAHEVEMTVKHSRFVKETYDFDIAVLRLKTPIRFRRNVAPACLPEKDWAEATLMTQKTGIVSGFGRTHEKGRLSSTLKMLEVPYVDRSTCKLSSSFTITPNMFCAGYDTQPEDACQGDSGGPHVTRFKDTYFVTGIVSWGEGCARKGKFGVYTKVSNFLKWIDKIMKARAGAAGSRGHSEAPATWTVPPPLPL

For `COc1ccc(NC(=O)c2ccc(C(=N)N(C)C)cc2)c(C(=O)Nc2ccc(Cl)cn2)c1` [betrixaban], the IC50 is > 2.88 µM.
